{"source": "patent US6500835B2", "about": "“Preventive or therapeutic drugs for fibrosis containing chymase inhibitors as the active ingredient” (Suntory Limited, priority 2000, dated 2002)", "key": {"Human heart chymase": {"molecular_target": "T1, Human heart chymase (Homo sapiens, UniProt P23946)", "T1 construct": "Human heart chymase was purified according to the method of Urata et al; from tissue; host or cells: human heart", "T1 sequence (P23946 22-247)": "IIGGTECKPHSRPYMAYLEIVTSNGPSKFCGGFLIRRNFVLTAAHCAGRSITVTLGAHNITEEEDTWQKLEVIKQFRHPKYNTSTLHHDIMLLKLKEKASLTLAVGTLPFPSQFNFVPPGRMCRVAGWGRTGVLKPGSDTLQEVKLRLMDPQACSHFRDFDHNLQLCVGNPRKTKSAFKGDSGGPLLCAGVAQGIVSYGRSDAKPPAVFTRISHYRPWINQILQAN", "assay": "Measurement of chymase inhibitory activity (Suc-Ala-Ala-Pro-Phe-MCA substrate)", "assay_type": "biochemical", "conditions": "30° C., 10 min preincubation", "procedure": "Human heart chymase was purified according to the method of Urata et al. (J. Biol. Chem., 1990, 265, 22348). The inhibitory activity off the compound of the present invention was determined as follows. Purified enzyme was diluted with 0.1M tris HCl buffer (pH=7.5), 1M sodium chloride, and 0.01% Triton X-100 to obtain an enzyme solution having appropriate concentrations. Suc-Ala-Ala-Pro-Phe-MCA (Peptide Institute Inc.) was dissolved in 10 mM dimethyl sulfoxide (hereinafter referred to as DMSO) and diluted 20-fold with 0.1 M Tris-HCl buffer (pH 7.5) containing 1 M sodium chloride and 0.01% Triton X-100 to an appropriate concentration to prepare substrate solution.\n5 μl of the test sample in DMSO was added to 75 μl of the enzyme solution and preincubated at 30° C. for 10 minutes. Then, 20 μl of the subs rate solution was added to the test sample-enzyme mixture, and incubated at 30° C. Ten minutes later, 50 μl of 30% acetic acid was added to stop the enzymatic reaction, and the amount of AMC formed was determined using a fluorophotometer. At the same time, 5 μl of DMSO in stead of the test sample was added and reacted simultaneously as a control. The inhibitory activity to human chymase was calculated based on the value of the control, and then the inhibition percentage and the 50% inhibition concentration (IC50) were determined."}, "skin chymase": {"molecular_target": "T2, skin chymase (Mus musculus, UniProt P21812)", "T2 construct": "Chymase was extracted from the skin according to the method described previously; from tissue; host or cells: skin of Tsk mice", "T2 sequence (P21812 21-246)": "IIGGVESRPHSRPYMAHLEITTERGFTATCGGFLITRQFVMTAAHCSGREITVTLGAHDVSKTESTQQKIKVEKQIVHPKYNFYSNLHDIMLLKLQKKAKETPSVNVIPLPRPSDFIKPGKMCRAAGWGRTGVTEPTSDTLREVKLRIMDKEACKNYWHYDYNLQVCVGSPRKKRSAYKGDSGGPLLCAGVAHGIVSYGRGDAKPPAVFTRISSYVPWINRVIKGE", "assay": "Tsk mice, model for scleroderma: skin chymase activity", "assay_type": "in vivo", "conditions": "50 mg/kg/day i.p. once a day for 2 weeks, 13-week old Tsk mice, 5 hours after final administration", "procedure": "(§1) A chymase inhibitor (Compound 18) was administered intraperitoneally in ICR mice (8 weeks old, n=3). After 12 hours and 24 hours, the chymase was extracted from the small intestines, tongues, back skins, front legs, and rear legs of the mice and the enzymatic activity thereof was determined. The chymase was extracted using a 10 mM phosphate buffer including 2M KCl and 0.1% polyethylene octylphenyl ether (Triton X-100) from the tissues. Chymase activity was determined, by measuring the rate of hydrolysis of synthesized substrate Suc-Phe-Pro-Phe-p-nitroanilide. Saline was administered in 24 hours in control groups.\nCollagen content, thickness of subcutaneous fibrous layer, mast cell number, chymase activity and chymase mRNA were measured in the skin of Tsk mice (Rheum. Dis. Clin. North Am. 16, 153, 1990), and compared with the control mice (pallid mice) at the ages of 5, 10, and 20 weeks (n=6). The collagen content was determined by measuring hydroxyproline, the marker for collagen, using HPLC, whereas fibrous layer thickness was determined by histological analysis with Azan staining followed by measuring the area of the fibrous layer using an image analysis system. The density of mast cells was calculated by counting the number of cells with stained granules by toluidine blue staining. […]"}, "Tsk mice": {"tested_on": "Tsk mice", "assay": "Tsk mice, model for scleroderma: thickness of subcutaneous fibrous layer", "assay_type": "in vivo", "conditions": "50 mg/kg/day i.p. once a day for 2 weeks, 13-week old Tsk mice", "procedure": "Collagen content, thickness of subcutaneous fibrous layer, mast cell number, chymase activity and chymase mRNA were measured in the skin of Tsk mice (Rheum. Dis. Clin. North Am. 16, 153, 1990), and compared with the control mice (pallid mice) at the ages of 5, 10, and 20 weeks (n=6). The collagen content was determined by measuring hydroxyproline, the marker for collagen, using HPLC, whereas fibrous layer thickness was determined by histological analysis with Azan staining followed by measuring the area of the fibrous layer using an image analysis system. The density of mast cells was calculated by counting the number of cells with stained granules by toluidine blue staining. Chymase was extracted from the skin according to the method described previously (Arch. Dermatol. Res. 290, 553, 1998), and the activity determined as described in Example 2. The mRNA for the skin chymase (MMCP-4) was measured only at 10 weeks of age by competitive RT-PCR method (Biotechniques 21, 268, 1996).\n13-week old Tsk mice (n=5) were intra peritoneally administered a chymase inhibitor (Compound 18) in a dosage of 50 mg/kg/day once a day every day for 2 weeks. Five hours after the final administration, the degree of hypertrophy of the subcutaneous fibrous layer and the skin-chymase activity were measured and compared with the values of the group administered saline. […]"}, "chymase": {"tested_on": "chymase", "assay": "Effects of chymase inhibitor on chymase activity in tissues of mice after intraperitoneal administration", "assay_type": "in vivo", "conditions": "ICR mice, 12 and 24 hours after administration", "procedure": "as §1"}, "[1]": {"tested_on": "bleomycin-induced pulmonary fibrosis in mice", "assay": "Bleomycin-induced pulmonary fibrosis model: effect of chymase inhibitor on lung hydroxyproline", "assay_type": "in vivo, ICR mice", "conditions": "five days a week over 2 weeks, bleomycin 0.08 mg", "procedure": "(§2) Pulmonary fibrosis was induced by intratracheal administration of bleomycin (Nippon Kayaku) to 10 week old male ICR mice (Charles River Japan) under anesthesia (n=10). That is, bleomycin (0.04 mg or 0.08 mg) was suspended in 50 μl of saline and administered into the airways using a 100 μl syringe (made by Hamilton Co.) Two weeks after the administration of bleomycin, the lungs were excised and the amount of hydroxyproline, an indicator of tissue collagen, was assayed according to the method as described previously (Anal. Biochem. 19, 249, 1967). Further, the amount of hydroxyproline was expressed as an amount per lung. Further, mice similarly administered saline instead of bleomycin were used as a control (n=10).\nPulmonary fibrosis was induced in accordance with the method described in Example 5 (n=10) and the amount of hydroxyproline in pulmonary tissue was assayed in the same way as in Example 5 in order to investigate the effect of a chymase inhibitor (Compound 34) on pulmonary fibrosis. Further, the chymase inhibitor was suspended in saline containing 0.5% hydroxypropyl cellulose (HPC/saline) and administered intraperitoneally at a dose of 10 mg/kg or 50 mg/kg once a day for five days a week over 2 weeks, starting immediately after the bleomycin administration. […]"}, "ICR mice": {"tested_on": "ICR mice", "assay": "Change in hydroxyproline content in lung after intratracheal bleomycin", "assay_type": "in vivo", "conditions": "2 weeks after administration", "procedure": "as §2"}, "pulmonary chymase": {"tested_on": "pulmonary chymase", "assay": "Change in pulmonary chymase activity after intratracheal bleomycin", "assay_type": "in vivo, mice", "conditions": "bleomycin 0.08 mg intratracheal, 2 weeks after administration"}}, "note": "Counter-ions that a name gives are not always drawn.", "data": [{"molecule": "O=C(O)C1Oc2ccc(S(=O)(=O)n3c(=O)[nH]c4cc(Cl)ccc4c3=O)cc2NC1=O", "note": "(racemic) [Compound 29, (±)-6-[(7-chloro-2,4(1H,3H)-quinazolinedion-3-yl)sulfonyl]-3-oxo-1,4-benzoxazine-2-carboxylic acid]", "values": [{"measurement": "IC50", "setting": "Human heart chymase", "value": 1700, "unit": "nM"}]}, {"molecule": "O=c1[nH]c2cc(Cl)ccc2c(=O)n1S(=O)(=O)c1cccc(O)c1", "note": "[Compound 1, 7-chloro-3-(3-hydroxybenzenesulfonyl)-2,4(1H,3H)-quinazolinedione]", "values": [{"measurement": "IC50", "setting": "Human heart chymase", "value": 360, "unit": "nM"}]}, {"molecule": "Nc1ccccc1S(=O)(=O)n1c(=O)[nH]c2cc(Cl)ccc2c1=O", "note": "[Compound 2, 3-(2-aminobenzenesulfonyl)-7-chloro-2.4(1H,3H)-quinazolinedione]", "values": [{"measurement": "IC50", "setting": "Human heart chymase", "value": 140, "unit": "nM"}]}, {"molecule": "Nc1cc(S(=O)(=O)n2c(=O)[nH]c3cc(Cl)ccc3c2=O)ccc1Cl", "note": "[Compound 8, 3-(3-amino-4-chlorobenzenesulfonyl)-7-chloro-2,4(1H,3H)-quinazolinedione]", "values": [{"measurement": "IC50", "setting": "Human heart chymase", "value": 35, "unit": "nM"}]}, {"molecule": "Cc1ccc(S(=O)(=O)n2c(=O)[nH]c3cc(Cl)ccc3c2=O)cc1N", "note": "[Compound 10, 3-(3-amino-4-methylbenzenesulfonyl)-7-chloro-2,4(1H,3H)-quinazolinedione]", "values": [{"measurement": "IC50", "setting": "Human heart chymase", "value": 170, "unit": "nM"}]}, {"molecule": "Nc1cccc(S(=O)(=O)n2c(=O)[nH]c3cc(Cl)ccc3c2=O)c1", "note": "[Compound 12, 3-(3-aminobenzenesulfonyl)-7-chloro-2,4(1H,3H)-quinazolinedione]", "values": [{"measurement": "IC50", "setting": "Human heart chymase", "value": 440, "unit": "nM"}]}, {"molecule": "CC(C(=O)O)C(=O)Nc1cccc(S(=O)(=O)n2c(=O)[nH]c3cc(Cl)ccc3c2=O)c1", "note": "(stereo not shown) [Compound 13, 2-{3-[(7-chloro-2,4(1H,3H)-quinazolinedion-3-yl)sulfonyl]phenylaminocarbonyl}propionic acid]", "values": [{"measurement": "IC50", "setting": "Human heart chymase", "value": 300, "unit": "nM"}]}, {"molecule": "O=C(O)c1ccc(S(=O)(=O)n2c(=O)[nH]c3cc(Cl)ccc3c2=O)cc1O", "note": "[Compound 16, 4-[(7-chloro-2,4(1H,3H)-quinazolinedion-3-yl)sulfonyl]salicylic acid monosodium salt]", "values": [{"measurement": "IC50", "setting": "Human heart chymase", "value": 840, "unit": "nM"}]}, {"molecule": "Nc1cc(S(=O)(=O)n2c(=O)[nH]c3cc(Cl)ccc3c2=O)ccc1C(=O)O", "note": "[Compound 17, 4-[(7-chloro-2,4(1H,3H)-quinazolinedion-3-yl)sulfonyl]anthranilic acid]", "values": [{"measurement": "IC50", "setting": "Human heart chymase", "value": 140, "unit": "nM"}]}, {"molecule": "Nc1cc(S(=O)(=O)n2c(=O)[nH]c3cc(Cl)ccc3c2=O)ccc1C(=O)[O-].[Na+]", "note": "[Compound 18, 4-[(7-chloro-2,4(1H,3H)-quinazolinedion-3-yl)sulfonyl]anthranilic acid monosodium salt]", "values": [{"measurement": "skin chymase activity, % of that of the group administered saline", "setting": "skin chymase", "value": 57, "unit": "%"}, {"measurement": "thickness of the subcutaneous fibrous layer, % of that for the group administered saline", "setting": "Tsk mice", "value": "about 60%"}, {"measurement": "inhibition of chymase activity in the intestines compared with the group administered saline", "setting": "chymase; small intestines", "value": "approximately 80%"}, {"measurement": "inhibition of chymase activity in the tongue, back skin, and legs", "setting": "chymase; tongue, back skin, legs", "value": "about 50%"}, {"measurement": "IC50", "setting": "Human heart chymase", "value": 140, "unit": "nM"}]}, {"molecule": "O=C(O)c1cc(S(=O)(=O)n2c(=O)[nH]c3cc(Cl)ccc3c2=O)ccc1O", "note": "[Compound 21, 5-[(7-chloro-2,4(1H,3H)-quinazolinedion-3-yl)sulfonyl]salicylic acid]", "values": [{"measurement": "IC50", "setting": "Human heart chymase", "value": 340, "unit": "nM"}]}, {"molecule": "COc1ccc(S(=O)(=O)n2c(=O)[nH]c3cc(Cl)ccc3c2=O)cc1NC(C)=O", "note": "[Compound 22]", "values": [{"measurement": "IC50", "setting": "Human heart chymase", "value": 300, "unit": "nM"}]}, {"molecule": "COc1ccc(S(=O)(=O)n2c(=O)[nH]c3cc(Cl)ccc3c2=O)cc1NS(C)(=O)=O", "note": "[Compound 24, 7-chloro-3-(4-methoxy-3-methylsulfonylaminobenzenesulfonyl)-2,4(1H,3H)-quinazolinedione]", "values": [{"measurement": "IC50", "setting": "Human heart chymase", "value": 320, "unit": "nM"}]}, {"molecule": "COc1ccc2c(=O)n(S(=O)(=O)c3ccc(C(=O)O)c(N)c3)c(=O)[nH]c2c1", "note": "[Compound 27, 4-[(7-methoxy-2,4(1H,3H)-quinazolinedion-3-yl)sulfonyl]anthranilic acid]", "values": [{"measurement": "IC50", "setting": "Human heart chymase", "value": 4000, "unit": "nM"}]}, {"molecule": "Nc1cc(S(=O)(=O)n2c(=O)[nH]c3ccc(Cl)cc3c2=O)ccc1C(=O)O", "note": "[Compound 32, 4-[(6-chloro-2,4(1H,3H)-quinazolinedion-3-yl)sulfonyl]anthranilic acid]", "values": [{"measurement": "IC50", "setting": "Human heart chymase", "value": 1500, "unit": "nM"}]}, {"molecule": "CS(=O)(=O)O.Nc1cccc(S(=O)(=O)n2c(=O)[nH]c3cc(Cl)ccc3c2=O)c1", "note": "[Compound 34, 3-(3-aminobenzenesulfonyl)-7-chloro-2,4-(1H,3H)quinazolinedion methanesulfonic acid salt]", "values": [{"measurement": "effect on the increase of the amount of hydroxyproline in the lung", "setting": "[1]; 10 mg/kg i.p. once a day", "value": "little effect"}, {"measurement": "rate of suppression of the increase of the amount of hydroxyproline in the lung", "setting": "[1]; 50 mg/kg i.p. once a day", "value": "about 46%"}, {"measurement": "IC50", "setting": "Human heart chymase", "value": 360, "unit": "nM"}]}, {"molecule": "bleomycin", "values": [{"measurement": "hydroxyproline content in the lung as compared with the saline group", "setting": "ICR mice; bleomycin 0.04 mg/mouse intratracheal", "value": 1.15, "unit": "fold"}, {"measurement": "hydroxyproline content in the lung as compared with the saline group", "setting": "ICR mice; bleomycin 0.08 mg/mouse intratracheal", "value": 1.25, "unit": "fold"}, {"measurement": "pulmonary chymase activity relative to the group administered saline", "setting": "pulmonary chymase", "value": "about 4.5 times"}]}]}
